From patent publication US20210045385A1, “PYRIDAZINONE-SUBSTITUTED KETOXIMES AS HERBICIDES” (FMC Corporation, priority 2018, published 2021)

How the values were obtained:
Type in all cases: in vivo
[1] = tested on: ducksalad (Heteranhera limosa); test: Test B flooded paddy test, visual plant response rating; settings: 250 g ai/ha, Flood, applied to paddy water, 2-leaf stage, evaluated after 13 to 15 days
Procedure, shortened: (§1)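 Greenhouse paddy conditions applied: two-leaf plants, a 3 cm flood above the soil surface maintained throughout, and compound added to the water rather than the foliage. Plants were judged visually against controls at 13 to 15 days.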

[2] = tested on: sedge, umbrella (small-flower umbrella sedge, Cyperus difformis); test: as above; settings: 250 g ai/ha, Flood, applied to paddy water, 2-leaf stage, evaluated after 13 to 15 days
Procedure, shortened: as §1

[3] = tested on: rice (Oryza sativa); test: as above; settings: 250 g ai/ha, Flood, applied to paddy water, 2-leaf stage, evaluated after 13 to 15 days
Procedure, shortened: as §1

[4] = tested on: barnyardgrass (Echinochloa crus-galli); test: as above; settings: 250 g ai/ha, Flood, applied to paddy water, 2-leaf stage, evaluated after 13 to 15 days
Procedure, shortened: as §1

[5] = tested on: wheat (Triticum aestivum); test: Test A postemergence, visual plant response rating; settings: for Wheat plant response rating (0 to 100 scale): 500 g ai/ha, postemergence, 0 is no effect, 100 is complete control; for Wheat plant response rating: Postemergence, 125 g ai/ha, 0 to 100 scale (0 no effect, 100 complete control)
Procedure, shortened: (§2)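 Compared with untreated controls, treated plants received a visual injury score on a 0–100 scale around 10 days after application. The compound, in a non-phytotoxic solvent with surfactant, was given as a preemergence soil spray or postemergence at the one- to two-leaf stage.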

[6] = tested on: blackgrass (Alopecurus myosuroides); test: Test A postemergence, visual plant response rating; settings: for Blackgrass plant response rating (0 to 100 scale): 500 g ai/ha, postemergence, 0 is no effect, 100 is complete control; for Blackgrass plant response rating: Postemergence, 125 g ai/ha, 0 to 100 scale (0 no effect, 100 complete control)
Procedure, shortened: as §2

[7] = tested on: Italian ryegrass (Lolium multiflorum); test: Test A postemergence, visual plant response rating; settings: for Ryegrass, Italian plant response rating (0 to 100 scale): 500 g ai/ha, postemergence, 0 is no effect, 100 is complete control; for Ryegrass, Italian plant response rating: Postemergence, 125 g ai/ha, 0 to 100 scale (0 no effect, 100 complete control)
Procedure, shortened: as §2

[8] = tested on: pigweed (Amaranthus retroflexus); test: Test A postemergence, visual plant response rating; settings: for Pigweed plant response rating (0 to 100 scale): 500 g ai/ha, postemergence, 0 is no effect, 100 is complete control; for Pigweed plant response rating: Postemergence, 125 g ai/ha, 0 to 100 scale (0 no effect, 100 complete control)
Procedure, shortened: as §2

[9] = tested on: ragweed (common ragweed, Ambrosia elatior); test: Test A postemergence, visual plant response rating; settings: for Ragweed plant response rating (0 to 100 scale): 500 g ai/ha, postemergence, 0 is no effect, 100 is complete control; for Ragweed plant response rating: Postemergence, 125 g ai/ha, 0 to 100 scale (0 no effect, 100 complete control)
Procedure, shortened: as §2

[10] = tested on: galium (catchweed bedstraw, Galium aparine); test: Test A postemergence, visual plant response rating; settings: for Galium plant response rating (0 to 100 scale): 500 g ai/ha, postemergence, 0 is no effect, 100 is complete control; for Galium plant response rating: Postemergence, 125 g ai/ha, 0 to 100 scale (0 no effect, 100 complete control)
Procedure, shortened: as §2

[11] = tested on: barnyardgrass (Echinochloa crus-galli); test: Test A postemergence, visual plant response rating; settings: for Barnyardgrass plant response rating (0 to 100 scale): 500 g ai/ha, postemergence, 0 is no effect, 100 is complete control; for Barnyardgrass plant response rating: Postemergence, 125 g ai/ha, 0 to 100 scale (0 no effect, 100 complete control)
Procedure, shortened: as §2

[12] = tested on: kochia (Kochia scoparia); test: Test A postemergence, visual plant response rating; settings: for Kochia plant response rating (0 to 100 scale): 500 g ai/ha, postemergence, 0 is no effect, 100 is complete control; for Kochia plant response rating: Postemergence, 125 g ai/ha, 0 to 100 scale (0 no effect, 100 complete control)
Procedure, shortened: as §2

[13] = tested on: corn (Zea mays); test: Test A postemergence, visual plant response rating; settings: for Corn plant response rating (0 to 100 scale): 500 g ai/ha, postemergence, 0 is no effect, 100 is complete control; for Corn plant response rating: Postemergence, 125 g ai/ha, 0 to 100 scale (0 no effect, 100 complete control)
Procedure, shortened: as §2

[14] = tested on: foxtail, giant (giant foxtail, Setaria faberii); test: Test A postemergence, visual plant response rating; settings: for Foxtail, Giant plant response rating (0 to 100 scale): 500 g ai/ha, postemergence, 0 is no effect, 100 is complete control; for Foxtail, Giant plant response rating: Postemergence, 125 g ai/ha, 0 to 100 scale (0 no effect, 100 complete control)
Procedure, shortened: as §2

[15] = tested on: Italian ryegrass (Lolium multiflorum); test: Test A preemergence, visual plant response rating; settings: for Ryegrass, Italian plant response rating: 125 g ai/ha, preemergence, 0 to 100 scale, 0 no effect, 100 complete control; for Ryegrass, Italian plant response rating (0 to 100 scale): 500 g ai/ha Preemergence, approx. 10 days
Procedure, shortened: as §2

[16] = tested on: pigweed (Amaranthus retroflexus); test: Test A preemergence, visual plant response rating; settings: for Pigweed plant response rating: 125 g ai/ha, preemergence, 0 to 100 scale, 0 no effect, 100 complete control; for Pigweed plant response rating (0 to 100 scale): 500 g ai/ha Preemergence, approx. 10 days
Procedure, shortened: as §2

[17] = tested on: ragweed (common ragweed, Ambrosia elatior); test: Test A preemergence, visual plant response rating; settings: for Ragweed plant response rating: 125 g ai/ha, preemergence, 0 to 100 scale, 0 no effect, 100 complete control; for Ragweed plant response rating (0 to 100 scale): 500 g ai/ha Preemergence, approx. 10 days
Procedure, shortened: as §2

[18] = tested on: barnyardgrass (Echinochloa crus-galli); test: Test A preemergence, visual plant response rating; settings: for Barnyardgrass plant response rating: 125 g ai/ha, preemergence, 0 to 100 scale, 0 no effect, 100 complete control; for Barnyardgrass plant response rating (0 to 100 scale): 500 g ai/ha Preemergence, approx. 10 days
Procedure, shortened: as §2

[19] = tested on: kochia (Kochia scoparia); test: Test A preemergence, visual plant response rating; settings: for Kochia plant response rating: 125 g ai/ha, preemergence, 0 to 100 scale, 0 no effect, 100 complete control; for Kochia plant response rating (0 to 100 scale): 500 g ai/ha Preemergence, approx. 10 days
Procedure, shortened: as §2

[20] = tested on: foxtail, giant (giant foxtail, Setaria faberii); test: Test A preemergence, visual plant response rating; settings: for Foxtail, Giant plant response rating: 125 g ai/ha, preemergence, 0 to 100 scale, 0 no effect, 100 complete control; for Foxtail, Giant plant response rating (0 to 100 scale): 500 g ai/ha Preemergence, approx. 10 days
Procedure, shortened: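 Ratings use a 0–100 visual scale (100 = complete control) against untreated controls, scored about 10 days after greenhouse treatment. Test chemicals were formulated in surfactant-containing non-phytotoxic solvent and applied either as soil spray after planting (preemergence) or onto one- to two-leaf, 2–10 cm plants (postemergence).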

Compound: CO/N=C(\c1ccc(F)cc1C)c1c(O)c(C)nn(C)c1=O [Compound 72]
- Plant response rating, Ducksalad (0 to 100 scale, 0 is no effect, 100 is complete control) [1]: 0
- Plant response rating, Sedge, Umbrella (0 to 100 scale, 0 is no effect, 100 is complete control) [2]: 0
- Plant response rating, Rice (0 to 100 scale, 0 is no effect, 100 is complete control) [3]: 0
- Plant response rating, Barnyardgrass (0 to 100 scale, 0 is no effect, 100 is complete control) [4]: 0
- Wheat plant response rating (0 to 100 scale) [5]: 20
- Wheat plant response rating [5]: 0
- Blackgrass plant response rating (0 to 100 scale) [6]: 0
- Blackgrass plant response rating [6]: 20
- Ryegrass, Italian plant response rating (0 to 100 scale) [7]: 40
- Ryegrass, Italian plant response rating [7]: 0
- Pigweed plant response rating (0 to 100 scale) [8]: 80
- Pigweed plant response rating [8]: 30
- Ragweed plant response rating (0 to 100 scale) [9]: 70
- Ragweed plant response rating [9]: 40
- Galium plant response rating (0 to 100 scale) [10]: 70
- Galium plant response rating [10]: 70
- Barnyardgrass plant response rating (0 to 100 scale) [11]: 0
- Barnyardgrass plant response rating [11]: 0
- Kochia plant response rating (0 to 100 scale) [12]: 60
- Kochia plant response rating [12]: 20
- Corn plant response rating (0 to 100 scale) [13]: 20
- Corn plant response rating [13]: 0
- Foxtail, Giant plant response rating (0 to 100 scale) [14]: 10
- Foxtail, Giant plant response rating [14]: 0
- Ryegrass, Italian plant response rating [15]: 0
- Ryegrass, Italian plant response rating (0 to 100 scale) [15]: 40
- Pigweed plant response rating [16]: 0
- Pigweed plant response rating (0 to 100 scale) [16]: 20
- Ragweed plant response rating [17]: 0
- Ragweed plant response rating (0 to 100 scale) [17]: 20
- Barnyardgrass plant response rating [18]: 0
- Barnyardgrass plant response rating (0 to 100 scale) [18]: 0
- Kochia plant response rating [19]: 0
- Kochia plant response rating (0 to 100 scale) [19]: 0
- Foxtail, Giant plant response rating [20]: 0
- Foxtail, Giant plant response rating (0 to 100 scale) [20]: 10

Compound: CON=C(c1cc(C(F)(F)F)ccc1Cl)c1c(O)c(C)nn(C)c1=O [Compound 73]
- Plant response rating, Ducksalad (0 to 100 scale, 0 is no effect, 100 is complete control) [1]: 0
- Plant response rating, Sedge, Umbrella (0 to 100 scale, 0 is no effect, 100 is complete control) [2]: 0
- Plant response rating, Rice (0 to 100 scale, 0 is no effect, 100 is complete control) [3]: 0
- Plant response rating, Barnyardgrass (0 to 100 scale, 0 is no effect, 100 is complete control) [4]: 0
- Wheat plant response rating (0 to 100 scale) [5]: 40
- Wheat plant response rating [5]: 20
- Blackgrass plant response rating (0 to 100 scale) [6]: 90
- Blackgrass plant response rating [6]: 30
- Ryegrass, Italian plant response rating (0 to 100 scale) [7]: 90
- Ryegrass, Italian plant response rating [7]: 40
- Pigweed plant response rating (0 to 100 scale) [8]: 90
- Pigweed plant response rating [8]: 80
- Ragweed plant response rating (0 to 100 scale) [9]: 80
- Ragweed plant response rating [9]: 50
- Galium plant response rating (0 to 100 scale) [10]: 70
- Galium plant response rating [10]: 70
- Barnyardgrass plant response rating (0 to 100 scale) [11]: 60
- Barnyardgrass plant response rating [11]: 20
- Kochia plant response rating (0 to 100 scale) [12]: 80
- Kochia plant response rating [12]: 60
- Corn plant response rating (0 to 100 scale) [13]: 20
- Corn plant response rating [13]: 0
- Foxtail, Giant plant response rating (0 to 100 scale) [14]: 60
- Foxtail, Giant plant response rating [14]: 30
- Ryegrass, Italian plant response rating [15]: 20
- Ryegrass, Italian plant response rating (0 to 100 scale) [15]: 50
- Pigweed plant response rating [16]: 70
- Pigweed plant response rating (0 to 100 scale) [16]: 100
- Ragweed plant response rating [17]: 30
- Ragweed plant response rating (0 to 100 scale) [17]: 90
- Barnyardgrass plant response rating [18]: 20
- Barnyardgrass plant response rating (0 to 100 scale) [18]: 80
- Kochia plant response rating [19]: 0
- Kochia plant response rating (0 to 100 scale) [19]: 20
- Foxtail, Giant plant response rating [20]: 20
- Foxtail, Giant plant response rating (0 to 100 scale) [20]: 80
